Entries after “also recorded” stand apart in the source; their conditions may differ.
Legend:
[1] = tested on: H3K4me3 indicator (H3K4 trimethylation machinery activity); experiment: H3K4me3 indicator reporter assay, FACS; format: cell-based; settings: FIG. 17F
Description: Design of the indicator constructs. A genetically encoded histone reporter allele system has been developed which can be used to monitor activity of any histone maintenance machinery component in live cells. Previously, FRET based epigenetic activity systems have been created (Lin and Ting (2004) Angew Chem Int Ed Engl. 24;43 (22):2940-3; Lin et al. (2004) J. Am. Chem. Soc. 19;126(19):5982-3; U.S. Pat. No. 7,056,683). However, FRET-based assays need a complex technological setup which is not widely available and FRET-based assays have been much more difficult to introduce into transgenic mouse models. […] The particular construct design is based on a circularly permutated green fluorescent protein (GFP) that lacks fluorescence unless the two parts of GFP are brought into close proximity by external forces (Baird et al. (1999) Proc. Natl. Acad. Sci. U.S.A. 28;96(20):11241-6). […]
An H3K4 trimethylation reporter was also created. […] The activity of the epigenetic modification system can be quantified through fluorescence.
Epigenetic reporter alleles: Epigenetic reporter alleles were synthesized (OriGene, Rockville, Md.) using published sequences for component elements (Baird et al. (1999) Proc. Nail. Acad. Sci. 96:11241-6; Souslova et al. (2007) BMC Biotechnol. 7:37). […] FACS data were analyzed using FlowJo (Tree Star Inc, Ashland, Oreg.). […]

[2] = tested on: Klf10 expression; experiment: Real-time PCR of Kmt2d target gene Klf10 in spleen cells; format: in vivo, mouse; settings: Kmt2d^+/βGeo mice
Description: Real time PCR: Real-time PCR was performed using Kmt2d-specific probes for exons 20 and 52 (Mm_02600438 and Mm_01717664, respectively) from TaqMan® Gene Expression Assays (Life Technologies, Carlsbad, Calif.). For a comparison of transfection efficiencies for indicator constructs in transient transfection studies, real-time PCR was performed using SYBR Green Real-Time PCR Master Mix (Life Technologies, Carlsbad, Calif.) and primers IND-F-([…]; SEQ ID NO: 5) and IND-R-([…]; SEQ ID NO: 6) that are specific for the H3K4 methylation indicator. For expression analysis for KMT2D target gene KLF10, real-time PCR was performed using Klf10-specific expression assay (Mm00449812_m1) from TaqMan® Gene Expression Assays (Life Technologies, Carlsbad, Calif.).

[3] = tested on: H3K4 trimethylation and histone acetylation; settings: cited from earlier work

**Q.** With `CC(C)[C@H](C(=O)Nc1ccc(C(=O)NO)cc1)c1ccccc1` [AR-42, (S)—N-hydroxy-4-(3-methyl-2-phenylbutanamido)benzamide] as the compound, how does the “H3K4me3 indicator response to increasing levels of drug” value [1] read?
**A.** dose dependent response

**Q.** What about the cell numbers ([1]; higher doses) of the same compound?
**A.** decreased cell numbers at higher doses

**Q.** And the “Klf10 expression in spleen cells” value [2]?
**A.** normalization of expression of Klf10; also recorded: normalized

**Q.** And the “relative effect on H3K4me3” value ([3]; AR-42 versus MS275, Huang et al. (2011))?
**A.** strongest effect on H3K4me3

**Q.** What about the “effect on H3K4 trimethylation and histone acetylation” value ([3]; Huang et al. (2011)) of the same compound?
**A.** increase H3K4 trimethylation and histone acetylation

Source: patent US10568854B2, “Compositions and methods for treating kabuki syndrome and related disorders” (THE JOHNS HOPKINS UNIVERSITY, priority 2014, dated 2020)
